According to ChEMBL document CHEMBL5614413, “Design, synthesis and biological evaluation of amphiphilic benzopyran derivatives as potent antibacterial agents against multidrug-resistant bacteria” (Eur J Med Chem, 2024):
≈ marks a conversion by molar mass, not a printed value. Calls of active or inactive are those of the source. No cut-off for these calls is given here.

Columns and labels:
[1] = tested on: Staphylococcus epidermidis; test: Antibacterial activity erythromycin-susceptible Staphylococcus epidermidis ATCC 12228; assay type: functional
Staphylococcus aureus [2] = test: (§1) Antibacterial activity against methicillin-resistant Staphylococcus aureus ATCC 43300 infected in sepsis mouse model assessed as reduction in bacterial load in spleen at 5 mg/kg pre-infected with bacteria for 1 hrs followed by continuous compound administration at 12 hrs intervals for 2 days (reference value: 7.45 log10CFU/g); assay type: functional; settings: time 2 day
Staphylococcus aureus [3] = test: Selectivity ratio of MBC for bactericidal activity against methicillin-resistant Staphylococcus aureus ATCC 43300 in presence of 50% human serum to MBC for bactericidal activity against methicillin-resistant Staphylococcus aureus ATCC 43300; assay type: functional
Staphylococcus aureus [4] = test: Bactericidal activity against methicillin-resistant Staphylococcus aureus ATCC 43300 assessed as log reduction in bacterial growth at 16 microg/ml measured after 4 hrs by time-kill kinetics analysis; assay type: functional; settings: dose 16 µg/ml
Staphylococcus aureus [5] = test: as §1, with “liver” for “spleen”, “7.16” for “7.45”; assay type: functional; settings: time 2 day
Staphylococcus aureus [6] = test: (§2) Antibacterial activity against methicillin-resistant Staphylococcus aureus ATCC 43300 infected in sepsis mouse model assessed as reduction in number of surviving bacterial colonies in liver at 5 mg/kg pre-infected with bacteria for 1 hrs followed by continuous compound administration at 12 hrs intervals for 2 days relative to control; assay type: functional; settings: time 2 day
Staphylococcus aureus [7] = test: as §1, with “blood” for “spleen”, “3.69 log10CFU/ml)” for “7.45 log10CFU/g)”; assay type: functional; settings: time 2 day
Bacillus subtilis = test: Antibacterial activity against penicillin-susceptible Bacillus subtilis ATCC 9372; assay type: functional
Staphylococcus aureus [8] = test: Inhibition of biofilm formation in methicillin-resistant Staphylococcus aureus ATCC 43300 at 8 microg/ml relative to control; assay type: functional
Staphylococcus aureus [9] = test: Antibacterial activity against methicillin-resistant Staphylococcus aureus ATCC 43300; assay type: functional
Staphylococcus aureus [10] = test: as §1, with “blood” for “spleen”, “10” for “5”, “3.69 log10CFU/ml)” for “7.45 log10CFU/g)”; assay type: functional; settings: time 2 day
Cell membrane [11] = test: Induction of cytoplasmic membrane depolarization in methicillin-resistant Staphylococcus aureus ATCC 43300 assessed as increase in fluorescence intensity by DiSC3(5) dye-based fluorescence assay; assay type: cell membranes
Enterococcus faecalis = test: Antibacterial activity against vancomycin-susceptible Enterococcus faecalis ATCC 29212; assay type: functional
Staphylococcus aureus [12] = test: as §1, with “at 10” for “at 5”; assay type: functional; settings: time 2 day
Cell membrane [13] = test: Induction of cell membrane disruption in methicillin-resistant Staphylococcus aureus ATCC 43300 assessed as increase in DNA leakage; assay type: cell membranes
Staphylococcus aureus [14] = test: Drug resistance, ratio of MIC for methicillin-resistant Staphylococcus aureus ATCC 43300 after 20 passages to MIC for methicillin-resistant Staphylococcus aureus ATCC 43300 during first exposure; assay type: functional
Staphylococcus aureus [15] = test: as §2, with “blood” for “liver”; assay type: functional; settings: time 2 day
[16] = Selectivity index, ratio of HC50 for hemolytic activity in sheep RBC to MIC for antibacterial activity against methicillin-resistant Staphylococcus aureus ATCC 43300; assay type: toxicity; settings: sheep red blood cells (erythrocytes), read-out: Selectivity Index
Cell membrane [17] = test: Induction of cytoplasmic membrane permeabilization in methicillin-resistant Staphylococcus aureus ATCC 43300 assessed as increase fluorescence intensity at 16 microg/ml by PI staining based fluorescence analysis; assay type: cell membranes; settings: dose 16.0 µg/ml
Staphylococcus aureus [18] = test: Antibacterial activity against methicillin-resistant Staphylococcus aureus ATCC 43300 at 1/2 times of MIC measured after 20 passage; assay type: functional, organism-based
Staphylococcus aureus [19] = test: as §2, with “spleen” for “liver”, “10” for “5”; assay type: functional; settings: time 2 day
Staphylococcus aureus [20] = test: as §1, with “kidney” for “spleen”, “10” for “5”, “6.75” for “7.45”; assay type: functional; settings: time 2 day
Staphylococcus aureus [21] = test: Inhibition of biofilm formation in methicillin-resistant Staphylococcus aureus ATCC 43300; assay type: functional, organism-based; settings: dose 2-32 µg/ml
Staphylococcus aureus [22] = test: Bactericidal activity against methicillin-resistant Staphylococcus aureus ATCC 43300 in presence of 50% human blood by Mueller Hinton broth based assay; assay type: functional; settings: ATCC 43300, Blood, time <= 6 hrs
Staphylococcus aureus [23] = test: Bactericidal activity against methicillin-resistant Staphylococcus aureus ATCC 43300 assessed as bacterial killing at 16 microg/ml measured after 4 hrs by time-kill kinetics analysis relative to control; assay type: functional; settings: dose 16 µg/ml
Staphylococcus aureus [24] = test: as §2, with “spleen” for “liver”; assay type: functional; settings: time 2 day
Cell membrane [25] = test: Induction of cell membrane disruption in methicillin-resistant Staphylococcus aureus ATCC 43300 assessed as increase in protein leakage; assay type: cell membranes
Cell membrane [26] = test: Induction of cytoplasmic membrane depolarization in methicillin-resistant Staphylococcus aureus ATCC 43300 assessed as fold increase in fluorescence intensity at 16 microg/ml measured within 20 min by DiSC3(5) dye-based fluorescence assay; assay type: cell membranes; settings: dose 16.0 µg/ml
Staphylococcus aureus [27] = test: as §1, with “liver” for “spleen”, “10” for “5”, “7.16” for “7.45”; assay type: functional; settings: time 2 day
Staphylococcus aureus [28] = test: Bacteriostatic activity against methicillin-resistant Staphylococcus aureus ATCC 43300 assessed as inhibition of bacterial growth at 1 times of MIC measured after 24 hrs by time-kill kinetic analysis; assay type: functional, organism-based
Staphylococcus aureus [29] = test: Inhibition of biofilm formation in methicillin-resistant Staphylococcus aureus ATCC 43300 at 16 microg/ml relative to control; assay type: functional
Staphylococcus aureus [30] = test: Bacteriostatic activity against methicillin-resistant Staphylococcus aureus ATCC 43300 assessed as inhibition of bacterial growth at 2 times of MIC measured after 24 hrs by time-kill kinetic analysis; assay type: functional, organism-based
Pseudomonas aeruginosa = test: Antibacterial activity against penicillin-susceptible Pseudomonas aeruginosa ATCC 27853; assay type: functional
Cell membrane [31] = test: Disruption of cell membrane integrity in methicillin-resistant Staphylococcus aureus ATCC 43300 assessed as appearance of blue fluorescence by DAPI/PI staining based microscopic analysis; assay type: cell membranes
Staphylococcus aureus [32] = test: Selectivity ratio of MBC for bactericidal activity against methicillin-resistant Staphylococcus aureus ATCC 43300 preincubated with 50% human plasma upto 6 hrs to MBC for bactericidal activity against methicillin-resistant Staphylococcus aureus ATCC 43300; assay type: functional
Cell membrane [33] = test: Induction of cytoplasmic membrane depolarization in methicillin-resistant Staphylococcus aureus ATCC 43300 assessed as increase in fluorescence intensity at 2 microg/ml by DiSC3(5) dye-based fluorescence assay; assay type: cell membranes; settings: dose 2.0 µg/ml
Staphylococcus aureus [34] = test: as §2, with “blood” for “liver”, “10” for “5”; assay type: functional; settings: time 2 day
Staphylococcus aureus [35] = test: as §2, with “10” for “5”; assay type: functional; settings: time 2 day

Question: What does the source list for `CCCCN(CCCC)CCCNCCCOc1c(C(C)=O)ccc2c1C=CC(C)(CCC=C(C)C)O2` (stereo not drawn)?
Answer: MIC [1]: 1 µg/mL (≈ 1.95 µM); Activity (Staphylococcus aureus [2]): 2 log10CFU/g; selectivity ratio (Staphylococcus aureus [3]): 2; log(activity) (Staphylococcus aureus [4]): 8.35; Activity (Staphylococcus aureus [5]): 1.98 log10CFU/g; Activity (Staphylococcus aureus [6]): 98.9%; Activity (Staphylococcus aureus [7]): 1.1 log10CFU/ml; MIC (Bacillus subtilis): 2 µg/mL (≈ 3.9 µM); inhibition at 8 µg/mL (Staphylococcus aureus [8]): 37.2%; MIC (Staphylococcus aureus [9]): 2 µg/mL (≈ 3.9 µM); Activity (Staphylococcus aureus [10]): 1.46 log10CFU/ml; Activity (Cell membrane [11]): Dose-Dependent Effect; MIC (Enterococcus faecalis): 4 µg/mL (≈ 7.8 µM); Activity (Staphylococcus aureus [12]): 2.24 log10CFU/g; Activity (Cell membrane [13]): Active; Ratio (Staphylococcus aureus [14]): 2; Activity (Staphylococcus aureus [15]): 91.8%; selectivity ratio [16]: 65.6; Activity (Cell membrane [17]): Active; Activity (Staphylococcus aureus [18]): Active; Activity (Staphylococcus aureus [19]): 99.4%; Activity (Staphylococcus aureus [20]): 2.84 log10CFU/g; inhibition (Staphylococcus aureus [21]): Dose-Dependent Effect; MBC (Staphylococcus aureus [22]): 32 µg/mL; Activity (Staphylococcus aureus [23]): >=99.9%; Activity (Staphylococcus aureus [24]): 99%; Activity (Cell membrane [25]): Active; fold change (FC) (Cell membrane [26]): 15; Activity (Staphylococcus aureus [27]): 2.69 log10CFU/g; Activity (Staphylococcus aureus [28]): Active; inhibition at 16 µg/mL (Staphylococcus aureus [29]): > 92%; Activity (Staphylococcus aureus [30]): Active; MIC (Pseudomonas aeruginosa): 32 µg/mL (≈ 62.4 µM); Activity (Cell membrane [31]): Active; selectivity ratio (Staphylococcus aureus [32]): <2; Activity (Cell membrane [33]): inactive; Activity (Staphylococcus aureus [34]): 95.9%; Activity (Staphylococcus aureus [35]): 99.8%
